Source: patent US10202351B2, “Pyrazolyl derivatives as pest control agents” (BAYER ANIMAL HEALTH GMBH, priority 2015, dated 2019)

Legend:
[1] = tested on: Phaedon cochleariae; assay: Phaedon cochleariae spray test; assay type: in vivo; conditions: larvae on Chinese cabbage leaf discs, after 7 days
Description: (§1) Solvent: 78.0 parts by weight of acetone • • 1.5 parts by weight of dimethylformamide Emulsifier: alkylaryl polyglycol ether […] To produce further test concentrations, the formulation is diluted with emulsifier-containing water. Discs of Chinese cabbage leaves (Brassica pekinensis) are sprayed with an active ingredient formulation of the desired concentration and, after drying, populated with larvae of the mustard beetle (Phaedon cochleariae).

[2] = tested on: Musca domestica; assay: Musca domestica test; assay type: in vivo; conditions: application rate 100 ppm, adult houseflies, kill after 2 days
Procedure, shortened: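 Compound dissolved in DMSO (10 mg per 0.5 ml), diluted with water to test concentration and applied to a sugar-solution sponge. Vessels held 10 adult houseflies; percent kill scored after 2 days (100% = all dead).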

[3] = logP determination by HPLC on reversed-phase column (EEC Directive 79/831 Annex V.A8); assay type: physicochemical; conditions: Table 1; HPLC C18, acetonitrile/water with formic acid
[4] = tested on: Ctenocephalides felis; assay: Ctenocephalides felis oral test; assay type: in vivo; conditions: application rate 100 ppm in citrated cattle blood, kill after 2 days
Description: Solvent: dimethyl sulfoxide […] Dilution with citrated cattle blood gives the desired concentration. About 20 unfed adult cat fleas (Ctenocephalides felis) are placed into a chamber which is closed at the top and bottom with gauze. A metal cylinder whose bottom end is closed with parafilm is placed onto the chamber. The cylinder contains the blood/active ingredient formulation, which can be imbibed by the fleas through the parafilm membrane.

[5] = tested on: Rhipicephalus sanguineus; assay: Rhipicephalus sanguineus in vitro contact test with adult brown dog ticks; assay type: in vivo; conditions: after 48 h, dead or moribund ticks
Description: After the solvent has evaporated off, the tubes are populated with 5-10 adult dog ticks (Rhipicephalus sanguineus), sealed with a perforated plastic lid and incubated in a horizontal position in the dark at room temperature and ambient humidity. After 48 h, efficacy is determined. To this end, the ticks are knocked to the base of the tube and incubated on a hotplate at 45-50° C. for not more than 5 min. Ticks which remain motionless on the base or move in such an uncoordinated manner that they are unable to deliberately avoid the heat by climbing upwards are considered to be dead or moribund.

[6] = tested on: Lucilia cuprina; assay: Lucilia cuprina test; assay type: in vivo; conditions: application rate 100 ppm, L1 larvae, kill after 2 days
Procedure, shortened: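 About 20 L1 larvae were placed in vessels of minced horsemeat containing compound, formulated in dimethyl sulfoxide and diluted with water to the test concentration. Kill (%) was scored after 2 days; 100% means all larvae dead, 0% none.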

[7] = tested on: Tetranychus urticae; assay: Tetranychus urticae spray test, OP-resistant; assay type: in vivo; conditions: all stages on bean leaf discs, after 6 days
Description: Solvent: 78.0 parts by weight of acetone • • 1.5 parts by weight of dimethylformamide Emulsifier: alkylaryl polyglycol ether […] To produce further test concentrations, the formulation is diluted with emulsifier-containing water. Discs of bean leaves (Phaseolus vulgaris) infested with all stages of the greenhouse red spider mite (Tetranychus urticae) are sprayed with an active ingredient formulation of the desired concentration.

[8] = tested on: cattle ticks (Boophilus microplus) Parkhurst strain, SP-resistant; assay: Boophilus microplus dip test; assay type: in vivo; conditions: application rate 100 ppm, after 7 days, laying of fertile eggs
Description: Test animals: cattle ticks (Boophilus microplus) Parkhurst strain, SP-resistant
Solvent: dimethyl sulfoxide
10 mg of active ingredient are dissolved in 0.5 ml of dimethyl sulfoxide. To produce a suitable formulation, the active ingredient solution is diluted with water to the concentration desired in each case.
This active ingredient formulation is pipetted into tubes. 8-10 engorged adult female cattle ticks (Boophilus microplus) are transferred into a further tube with holes. The tube is immersed into the active ingredient formulation, and all the ticks are completely wetted. After the liquid has run out, the ticks are transferred on filter disks into plastic dishes and stored in a climate-controlled room.
Efficacy is assessed after 7 days by laying of fertile eggs. Eggs which are not visibly fertile are stored in a climate-controlled cabinet until the larvae hatch after about 42 days. An efficacy of 100% means that none of the ticks has laid any fertile eggs; 0% means that all the eggs are fertile.

[9] = tested on: Ctenocephalides felis; assay: Ctenocephalides felis in vitro contact test with adult cat fleas; assay type: in vivo; conditions: application rate 5 μg/cm^2 (500 g/ha), after 48 h, dead or moribund fleas
Description: After the solvent has evaporated off, the tubes are populated with 5-10 adult cat fleas (Ctenocephalides felis), sealed with a perforated plastic lid and incubated in a horizontal position at room temperature and ambient humidity. After 48 h, efficacy is determined. To this end, the tubes are stood upright and the fleas are knocked to the base of the tube. Fleas which remain motionless at the base or move in an uncoordinated manner are considered to be dead or moribund.

[10] = tested on: Boophilus microplus; assay: Boophilus microplus injection test; assay type: in vivo; conditions: application rate 20 μg/animal, after 7 days, laying of fertile eggs
Description: Solvent: dimethyl sulfoxide […] The animals are transferred into dishes and kept in a climate-controlled room. Efficacy is assessed after 7 days by laying of fertile eggs. Eggs which are not visibly fertile are stored in a climate-controlled cabinet until the larvae hatch after about 42 days.

[11] = tested on: Spodoptera frugiperda; assay: Spodoptera frugiperda spray test; assay type: in vivo; conditions: caterpillars on maize leaf discs, after 7 days
Description: as §1, with “Leaf discs” for “Discs”, “maize (Zea mays)” for “Chinese cabbage leaves (Brassica pekinensis)”, “compound” for “ingredient”, “caterpillars” for “larvae”, “armyworm (Spodoptera frugiperda).” for “mustard beetle (Phaedon cochleariae).”

[12] = tested on: Meloidogyne incognita; assay: Meloidogyne incognita test; assay type: in vivo; conditions: application rate 20 ppm, nematicidal efficacy by formation of galls on lettuce after 14 days
Description: Solvent: 125.0 parts by weight of acetone
To produce a suitable active ingredient formulation, 1 part by weight of active ingredient is mixed with the stated amount of solvent and the concentrate is diluted to the desired concentration with water.
Vessels are filled with sand, active ingredient solution, an egg/larvae suspension of the southern root-knot nematode (Meloidogyne incognita) and lettuce seeds. The lettuce seeds germinate and the plants develop. The galls develop on the roots.
After 14 days, the nematicidal efficacy in % is determined by the formation of galls. 100% means that no galls were found; 0% means that the number of galls on the treated plants corresponds to the untreated control.

[13] = application rate 5 μg/cm^2 (500 g/ha)

SMILES | efficacy ([1]; application rate 500 g/ha) | efficacy [2] | lgP [3] | efficacy [4] | efficacy [5, 13] | efficacy [6] | efficacy ([7]; application rate 100 g/ha) | efficacy ([7]; application rate 500 g/ha) | efficacy [8] | efficacy [9] | efficacy [10] | efficacy ([11]; application rate 100 g/ha) | efficacy ([11]; application rate 500 g/ha) | efficacy ([1]; application rate 100 g/ha) | efficacy [12] | efficacy ([5]; application rate 1 μg/cm^2 (100 g/ha))
Cc1cc(C(F)(C(F)(F)F)C(F)(F)F)cc(C)c1-n1cc(-c2ccc(Cl)c(NC(=O)c3ccncc3)c2)cn1 [Example 2] | 100% | 100% | lgP 4.41 | 100% | 100% | 100% | 100% | 100% | 100% | 100% | 100% | 100% | 100% |  |  | 
Cc1cc(C(F)(C(F)(F)F)C(F)(F)F)cc(C)c1-n1cc(-c2cnc(Cl)c(NC(=O)c3ccncc3)c2)cn1 [Example 12] |  | 100% | lgP 3.97 | 100% | 80% | 90% | 100% |  |  | 100% | 100% | 100% |  | 100% |  | 
Cc1cc(C(F)(C(F)(F)F)C(F)(F)F)cc(C(F)(F)F)c1-n1cc(-c2cc(NC(=O)c3ccc(C#N)nc3)ccc2F)cn1 [Example 2-3] |  | 100% |  | 100% |  | 100% | 90% |  |  |  | 100% | 100% |  | 100% | 90% | 
Cc1cc(C(F)(C(F)(F)F)C(F)(F)F)cc(C(F)(F)F)c1-n1cc(-c2ccc(F)c(NC(=O)c3ccsc3)c2)cn1 [Example 31] |  | 100% |  | 100% |  | 100% | 100% |  | 90% |  | 100% | 100% |  | 100% |  | 
O=C(Nc1ccc(F)c(-c2cnn(-c3c(Br)cc(C(F)(C(F)(F)F)C(F)(F)F)cc3C(F)(F)F)c2)c1)c1ccncc1 [Example 2-13] |  | 100% |  | 100% | 80% | 100% | 90% |  | 100% | 80% | 100% | 100% |  | 100% |  | 
Cc1cc(C(F)(C(F)(F)F)C(F)(F)F)cc(C(F)(F)F)c1-n1cc(-c2cc(NC(=O)c3ccc(Cl)nc3)ccc2F)cn1 [Example 2-4] |  |  |  | 95% |  | 90% |  |  |  |  | 100% | 100% |  | 100% | 90% | 
Cc1cc(C(F)(C(F)(F)F)C(F)(F)F)cc(C(F)(F)F)c1-n1cc(-c2ccc(F)c(NC(=O)c3ccncc3)c2)cn1 [Example 50] |  | 100% |  | 100% | 80% | 100% | 100% |  |  | 100% | 100% | 100% |  | 100% |  | 
Cc1cc(C(F)(C(F)(F)F)C(F)(F)F)cc(C)c1-n1cc(-c2ccc(F)c(NC(=O)c3ccc(F)cc3)c2F)cn1 [Example 7] |  |  | lgP 4.84 |  | 80% | 80% | 100% |  |  | 100% | 100% | 83% |  | 100% |  | 
Cc1cc(C(F)(C(F)(F)F)C(F)(F)F)cc(C)c1-n1cc(-c2ccc(F)c(NC(=O)c3ccncc3)c2)cn1 [Example 6] |  | 100% | lgP 4.04 | 100% |  | 100% | 100% |  |  | 100% | 100% | 100% |  | 100% |  | 100%
